{
  "source": "patent US11819492B2",
  "about": "“Natural product derivatives for inhibiting cellular necroptosis, ferroptosis and oxytosis” (Institut National de la Sante et de la Recherche Medicale …, priority 2016, dated 2023)",
  "key": {"hRPE-1 cells": {"system": "hRPE-1 cells", "test": "Cytotoxicity on human retinal pigment epithelial cell line (MTS)", "type": "cell-based", "conditions": "0-50 μM tested, 24 hours, FIG. 5", "description": "A colorimetric MTS assay was used to calculate the percentage of cell viability."}, "RIPK1": {"biological_target": "T1, RIPK1 (Homo sapiens, UniProt Q13546)", "T1 construct": "DNA tag (qPCR read-out); purchased DiscoveRx Corporation, Fremont, USA (assay service)", "T1 sequence (Q13546 1-671)": "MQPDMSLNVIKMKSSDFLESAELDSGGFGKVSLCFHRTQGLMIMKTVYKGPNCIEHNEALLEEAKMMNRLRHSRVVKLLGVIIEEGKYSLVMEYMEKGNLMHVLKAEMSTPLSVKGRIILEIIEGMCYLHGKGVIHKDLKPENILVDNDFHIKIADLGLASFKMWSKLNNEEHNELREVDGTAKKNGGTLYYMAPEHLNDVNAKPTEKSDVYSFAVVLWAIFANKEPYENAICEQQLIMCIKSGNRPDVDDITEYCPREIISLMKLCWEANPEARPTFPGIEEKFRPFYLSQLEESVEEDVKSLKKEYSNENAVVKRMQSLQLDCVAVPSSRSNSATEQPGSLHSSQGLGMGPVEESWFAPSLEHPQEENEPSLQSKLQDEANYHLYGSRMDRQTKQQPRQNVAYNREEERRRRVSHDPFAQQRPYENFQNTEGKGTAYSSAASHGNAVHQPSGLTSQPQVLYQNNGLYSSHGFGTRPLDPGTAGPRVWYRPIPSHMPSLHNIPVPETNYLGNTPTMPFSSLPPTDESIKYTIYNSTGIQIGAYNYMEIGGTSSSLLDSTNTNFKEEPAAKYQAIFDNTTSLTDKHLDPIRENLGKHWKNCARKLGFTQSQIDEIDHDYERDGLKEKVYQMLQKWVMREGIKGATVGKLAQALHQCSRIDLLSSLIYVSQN", "test": "KINOMEscan Max competition binding assay, RIPK1", "conditions": "RIPK1, FIG. 8", "description": "(§1) This experimental approach quantitatively measures the ability of a compound to compete with an immobilized, active-site directed ligand. […] The ability of compound 1 to compete with the immobilized ligand is measured via quantitative PCR of the DNA tag. The codes reported on the FIG. 8 indicate the subclasses of protein kinases: CMGC for CDKs, MAP kinases, GSK and CDK-like kinases; AGC for Protein kinase A, G, and C families (PKA, PKC, PKG); CAMK for Ca2+/calmodulin-dependent protein kinases; CK1, Cell Kinases 1 (originally known as Casein Kinase 1); STE, STE Kinases (Homologs of yeast STErile kinases); TKL, Tyrosine Kinases-Like; TK, Tyrosine Kinases. Each kinase tested in the assay panel is marked with a circle. The hit kinase reported, RIPK1, is marked with a black circle."}, "[1]": {"system": "Human endothelial cells (HAEC)", "test": "In vitro hypoxic cold storage viability assay", "type": "cell-based", "description": "Human endothelial cells (HAEC) were grown to confluence, then synchronized using depleted media for 16h. For hypothermia/hypoxia, cells were washed twice with PBS then incubated in University of Wisconsin (UW) solution in 95% N2/5% CO2 atmosphere at 4° C. for 24 hours. […] Shown are mean+/−SD, n=3. UW are cells treated only with UW preservation solution. Controls are cells not subjected to this protocol (cells are continuously oxygenated) but cultivated for the same amount of time in regular culture conditions. […] It should be noted that the hypoxic cold storage mimics the process occurring during graft preservation."}, "[2]": {"biological_target": "T2, Human RIPK1 full length GST-tagged (Homo sapiens, UniProt Q13546)", "T2 construct": "Human RIPK1 full length GST-tagged; made in house; host or cells: Sf9 insect cells (baculovirus, Bac-to-Bac)", "T2 sequence (Q13546 1-671)": "T1 sequence (Q13546 1-671)", "test": "RIPK1 autophosphorylation assay", "type": "biochemical", "description": "RIPK1 Autophosphorylation Assay: • Human RIPK1 full length GST-tagged was baculovirally expressed in Sf9 cells according to manufacturer's instructions (Bac-to-Bac expression system, Invitrogen) and purified using gluthation-sepharose beads (GE Healthcare). The elution was made in 50 mM Tris-HCl, pH 8.0 buffer supplemented with 30 mM reduced gluthathione (Sigma). The protocol used to detect the enzymatic activity is adapted from Miao and Degterev (Methods Mol. Biol. 2009, 559, 79-93). Kinase reaction was initiated mixing 5 μl of eluted RIPK1, 5 μl of 3X kinase reaction buffer (5 mM MOPS pH 7.2, 2.5 mM β-glycerophosphate, 4 mM MgCl2, 2.5 mM MnCl2, 1 mM EGTA, 0.4 mM EDTA, 50 μg/ml BSA, 0.05 mM DTT), 2 μl H2O and 3 μl of the tested molecule. The mixture was kept on ice for 10 minutes. […] ATP. The ATP solution and the tested inhibitor were added to the kinase and incubated for 30 minutes at 30° C. To stop the enzymatic reaction, 5 μl of loading buffer were added and solution was heated for 3 minutes at 95° C. 25 μl of each reaction were loaded per well in pre-cast NuPage 12% Bis-Tris gel (Life Technology). Necrostatin-1, a well-described inhibitor of RIPK1, was used as an internal control. Coomassie staining was performed in order to estimate the total amount of protein loaded on polyacrylamide gel. […]"}, "[3]": {"system": "Porcine LLC-PK1 cells (kidney proximal tubule cell line)", "test": "Cold-induced cell death (cold storage), MTS viability assay", "type": "cell-based", "conditions": "24 hours at 4° C.", "description": "At it was previously shown (Ahlenstiel et al. Transplantation […], 81(2), 231-239), cold storage induces a cell-death process. Porcine LLC-PK1 cells (kidney proximal tubule cell line) were stored at approximately 4° C. during 24 hours with or without the tested molecules. […] Cells were then incubated at 37° C., 5% CO2 before performing MTS viability assay. Cell viability was monitored using CellTiter 96® AQueous Non-Radioactive Cell Proliferation Assay (Promega, Fitchburg, WI, USA), based on the water-soluble tetrazolium compound MTS (3-[4,5-dimethylthiazol-2-yl]-5-[3-carboxymethoxy-phenyl]-2-[4-sulfophenyl]-2H-tetrazolium, inner salt) according to the manufacturers instructions."}, "[4]": {"system": "rat embryonic myoblastic H9C2 cells", "test": "H2O2-induced necrosis, LDH release assay", "type": "cell-based", "conditions": "10 μM, 2 hours pretreatment, 800 μM H2O2 for 24 hours, FIG. 17", "description": "The rat embryonic myoblastic H9C2 cells were cultured at 10,000 cells/well in 96-well-plates for 24 hours at 37° C./5% CO2. […] LB corresponds to cells treated with a lysis buffer (100% of cell death). Cell cytotoxicity was determined by a colorimetric assay quantitatively measuring lactate dehydrogenase (LDH) released […]."}, "[5]": {"system": "456 kinases, including eight lipid kinases", "test": "KINOMEscan Max competition binding assay, profiling against 456 kinases", "set-up": "species or system human", "conditions": "poor affinity = over 30% of kinase still on the affinity matrix, FIG. 8", "description": "as §1"}},
  "data": [
    {"smiles": "COc1cc(O)c2c(c1)OC(O)(c1ccc(OCc3ccccc3)cc1)CC2=O", "note": "(centres unmarked) [compound 1]", "values": [
      {"measurement": "cytotoxicity towards hRPE-1 cells", "setting": "hRPE-1 cells", "value": "not cytotoxic"},
      {"measurement": "initial amount of kinase still on the affinity matrix after competition", "setting": "RIPK1", "value": 0.15, "unit": "%"},
      {"measurement": "cell survival, treatment during hypoxia", "setting": "[1]; UW solution, 95% N2/5% CO2, 4° C., 24 hours, FIG. 10", "value": "measurable benefits on cell survival"},
      {"measurement": "cell survival, treatment during hypoxia and reoxygenation", "setting": "[1]; UW solution, 95% N2/5% CO2, 4° C., 24 hours, then reoxygenation, FIG. 11", "value": "measurable benefits on cell survival"},
      {"measurement": "effect on cell survival compared to the control inhibitors of necroptosis (Nec-1 and Nec-1s)", "setting": "[1]; hypoxic cold storage", "value": "significantly better"},
      {"measurement": "inhibition of RIPK1 autophosphorylation", "setting": "[2]; [γ-32P] ATP, 30 minutes at 30° C., FIG. 6", "value": "inhibits the RIPK1 autophosphorylation in a dose-dependent way"},
      {"measurement": "effect of high ATP concentrations on inhibition of RIPK1 auto-phosphorylation", "setting": "[2]; high ATP concentrations (e.g. 1 mM), FIG. 7", "value": "not affected"},
      {"measurement": "protection from death induced by cold storage", "setting": "[3]; 0.01-50.00 μM, FIGS. 16a, 16b", "value": "protects cells from death induced by cold storage"},
      {"measurement": "concentration of maximal activity against cold-induced cell death", "setting": "[3]", "value": 504},
      {"measurement": "protection from death induced by H2O2 (LDH release)", "setting": "[4]", "value": "protects from death induced by H2O2"},
      {"measurement": "specificity for RIPK1 among the large panel of tested kinases", "setting": "[5]", "value": "high specificity"}
    ]}
  ]
}
